From ChEMBL document CHEMBL5352438, “Discovery of Pyrrolo[2,3-d]pyrimidine derivatives as potent and selective colony stimulating factor 1 receptor kinase inhibitors” (Eur J Med Chem, 2022) come the findings set out here.

One may read the Cmax as the maximum level reached in the sampled fluid or tissue. The clearance is the rate of elimination divided by the concentration. Read a low clearance as inefficient removal. As a reminder, the AUC(0-inf) is the area under the concentration-time curve extrapolated to infinity. Lower therefore signals low exposure. By CL/F is commonly meant clearance divided by bioavailability, as obtained after extravascular dosing. The Vd is the apparent volume that relates the amount in the body to the concentration in plasma or blood.

The nature of series [1]: in vivo. Conditions: Sprague-Dawley, rat, po, 10 mg/kg.
The nature of series [2]: in vivo. The following applies: Sprague-Dawley, rat, iv, 1 mg/kg.
Series [3] is described as follows: in vivo. Conditions: Sprague-Dawley, rat, iv, 1 mg/kg. This is another data set of the same source.
Series [4] is described as follows: in vivo. Conditions: Sprague-Dawley, rat, iv, 1 mg/kg. The source holds these as a separate data set.
Series [5] can be described thus: in vivo. Conditions: Sprague-Dawley, rat, po, 10 mg/kg. This is another data set of the same source.
Series [6] is described as follows: in vivo. The following applies: Sprague-Dawley, rat, po, 10 mg/kg. The source holds these as a separate data set.
Series [7] in a line: in vivo. Conditions: Sprague-Dawley, rat, po, 10 mg/kg. This is another data set of the same source.
Series [8] in a line: in vivo. Conditions: Sprague-Dawley, rat, iv, 1 mg/kg. The source holds these as a separate data set.

In the case of `Cn1ccc2c(Oc3ccc(NC(=O)Cc4ccc(C(F)(F)F)c(F)c4)cc3)ncnc21`, the bioavailability at 12 h in “in vivo [1]” amounted to 111%. In addition, the peak concentration (Cmax) at 12 h in “in vivo [2]” worked out at 1430 ng/mL; in the series “in vivo [6]” it was 1190 ng/mL. The clearance at 12 h in the series “in vivo [3]” is 13.3 mL/min/kg. Besides, the area under the curve AUC(0-inf) at 12 h in “in vivo [4]” came out at 1310 ng·h/mL; in the series “in vivo [5]”, 14600 ng·h/mL. The same molecule gave an apparent clearance (CL/F) at 12 h in “in vivo [7]” of 11.6 mL/min/kg. The molecule further registered a Vd at 12 h in the series “in vivo [8]” of 1.55 L/kg.
